For experiment [1], the system named is hot plate induced pain model in rat. Put plainly: Hot plate induced pain model in rat. The class given is in vivo, Sprague-Dawley rats. To be noted: 100 mg/kg intraperitoneal. The procedure: Male, mature and unmated healthy Sprague-Dawley rats were selected, and the temperature of the cold/hot plate (product model: PE34, US IITC) was adjusted to a constant temperature of 53±0.1° C., and rats with painful response such as foot licking, foot shaking or slight jumping within 5-10 s were screened (abandoned those who evaded and jumped). […] The tested compound was freshly formulated on the day of administration. A 0.9% NaCl normal saline solution was prepared as a vehicle, an appropriate amount of the test compound was added to the required volume of normal saline, and the mixture was fully suspended to prepare the drug at a concentration of 1 mg/ml. […] The latency of thermal pain was measured at 0.5 h, 1 h and 2 h after drug administration. To avoid scalding the animals on the hot plate, the maximum latency was set to 30 s. The analgesic effect of each compound was evaluated using the maximum possible effect (MPE), i.e. MPE %=[(Post drug latency-baseline latency)/(30−baseline latency)]×100. Statistics of MPE % at different time points.

In a further experiment the test system is SNL model in rat. Put plainly: SNL model in rat, mechanical hyperalgesia test. Conditions: 100 mg/kg intragastric, 1 hour after administration; control group 3.967 ± 0.775. Format: in vivo, SD rats.
The test system of experiment [2] is postoperative pain model in rat. Put plainly: Postoperative pain model in rat, mechanical hyperalgesia test. To be noted: 10 mg/kg intramuscular injection. The class given is in vivo. The procedure:
Injection of compound I-1: 36.13 mg of compound I-1 prepared in Example 2 was weighed and added into 3.140 mL of normal saline, and well mixed by vortex;
The solvent of the test compound I-1 was normal saline, the administration dose was 10 mg/kg, and the administration method was intramuscular injection. 36.13 mg of the compound I-1 was weighed and added into 3.140 mL normal saline, and well mixed by vortex. The reference compound used in the experiment was bupivacaine injection, purchased from Shanghai Zhaohui Pharmaceutical Co., Ltd., in a dose of 10 mg/kg via intramuscular injection.
Aseptic operation was performed during surgery, surgical instruments (scissors, forceps, scalpel, surgical cotton, suture thread) were disinfected before the operation. The rats were anesthetized with sodium pentobarbital (50 mg/kg, intraperitoneal injection), and the toes of the rats were squeezed to confirm that the animals were completely anesthetized before the surgery. Ophthalmic ointment was applied to the animal's eyes to prevent the animal's cornea from drying out. Iodophor and 70% ethanol were used to disinfect the skin of the surgery area on the sole of the left hind foot three times, and the surgery was started after the skin was dried. Starting at 0.5 cm from the heel, a 1 cm long incision was made longitudinally toward the toe. After cutting the skin, the flexor digitorum brevis was lifted to make longitudinal blunt injury. After pressing to stop the bleeding, the wound was sutured. The surgical instruments were cleaned and sterilized with hot bead sterilizer. After the surgery, the animals were placed on an electric blanket and injected subcutaneously with 5 mL normal saline to prevent dehydration. When the animal was completely awake (free to move), put the animal back into the cage. […]
The rat was placed alone in a plexiglass box with a grid on the bottom of the box to ensure that the rat's feet can be tested. […] During the test, the animal's rapid foot shrinkage was recorded as a pain response. The animal's foot shrinkage when the test fiber left the animal's skin was also recorded as a pain response. If the animal moved or walked, it would not be recorded as the pain response, the test should be repeated. […] The mechanical hyperalgesia test results are recorded in the table of FIG. 10, in which pain response is indicated with an “x” and no pain response is indicated with an “o.”
Mechanical hyperalgesia was expressed as the paw withdrawal threshold (PWT) in the behavioral test of rats, which was calculated according to the following equation: 50% response threshold (g)=(10(Xf+k))/10,000 • Xf=the final test fiber value used in the test • K=table value (Chaplan et al. 1994, page 62) • □=Average difference 5. […]

Another experiment addresses T1, TRPA1 (Mus musculus, UniProt Q8BLA8).
T1 construct: expressed in transfected cells; host or cells: HEK293 cells stably expressing TRPA1
The experiment is described as follows: TRPA1 inhibitory activity, IonWorks Barracuda (IWB) automatic patch clamp detection. To be noted: HEK293 cells stably expressing TRPA1, AITC-induced current; read-out: IC50(μM) against TRPA1 in automatic patch clamp detection. The class given is cell-based. The procedure:
In this example, the compounds prepared in some examples of the present invention (shown in Table 1) were tested for their inhibitory activity on the transient receptor potential channel protein TRPA1. Wherein, compound of formula A (WO2010075353) was used as positive control: […]
Test method by using IonWorks Barracuda (IWB) automatic patch clamp detection: HEK293 cells stably expressing TRPA1 were placed in a 37° C., 5% CO2 incubator and incubated with DMEM medium containing 15 μg/mL Blasticidin S HCl, 200 μg/mL Hygromycin B and 10% FBS serum in a T175 culture flask. When the cell density grew to […], the culture medium was removed, the cells were washed with calcium and magnesium free phosphate buffered saline (PBS), and 3 mL of Trypsin was added and digested for 2 minutes, and 7 mL of culture medium was added to terminate the digestion. […]
Data recording and current amplitude measurement and export were completed by IWB Software (version 2.5.3, Molecular Devices Corporation, Union City, CA). The statistics of the well with a sealing impedance lower than 20 M Ω were not recorded. The original current data was corrected by software, the TRPA1 current amplitude was measured in +100 mV. […] The dose-effect curve and IC50 of compounds were fitted and calculated by GraphPad Prism 5.02 (GraphPad Software, San Diego, CA).
(In general: Patch clamp records ionic current or voltage across a cell membrane.)

Experiment [3] concerns formalin pain model in mice. Put plainly: Formalin pain model in mice. The class given is in vivo, C57BL/6 mice. Conditions: Mus musculus, ip; intraperitoneal, phase II (10-60 min), dose that halves licking time vs blank control; read-out: analgesic potency ED50 in phase II pain. An excerpt:
150 C57BL/6 mice (male, 9 weeks) were randomly divided into 15 groups with 10 mice for each group, and were used for the analgesic activity test of 3 compounds in the formalin pain model in mice: the compound I-1 group (compound I-1 prepared in Example 2, its hydrochloride was used in the experiment), the S-duloxetine group (its hydrochloride was used in the experiment) and the compound C1 group (compound C1 prepared in Comparative Example 1, its hydrochloride was used in the experiment), respectively. Before the start of the experiment, the mice were allowed to adapt to the experimental environment for 72 hours, during which there was no need to fast for food or water. The tested drugs were administrated by intraperitoneal injection, and the doses were as follows: • The compound I-1 group: blank Vehicle (blank normal saline control), 0.1 mg/kg, 0.5 mg/kg, 1 mg/kg, 5 mg/kg and 10 mg/kg; • The S-duloxetine group: blank Vehicle (blank normal saline control), 1 mg/kg, 5 mg/kg, 10 mg/kg and 20 mg/kg; • The Compound C1 group: blank Vehicle (blank normal saline control), 0.1 mg/kg, 0.5 mg/kg, 1 mg/kg, 5 mg/kg and 10 mg/kg.
After the administration, the mice were placed in a transparent, ventilated plexiglass cylinder, and 1 hour later, 20 μl of 4% formalin solution was injected into the left hind foot plantar of each group of mice with a micro-injector, and foot pain response in mice were recorded in real time with a miniature camera. The length of time of licking the left foot was used as an indicator of pain response, the licking time were observed and recorded during two periods of 0-10 min (phase I) and 10-60 min (phase II) respectively, for statistical analysis, and the half effective dose (ED50) of the 3 compounds were calculated: ED50 refers to the drug dose that reduces the licking time by half compared with the blank control group. The smaller the ED50 value is, the lower the effective analgesic dose of the compound is and the better its analgesic effect is.

For experiment [4], the system named is acetic acid writhing pain model in mice. Put plainly: Acetic acid writhing pain model in mice. Format: in vivo, ICR mice. To be noted: 10 mg/kg intragastric, acetic acid 1 hour after administration; normal saline group 49 times. The procedure:
ICR mice, male, 22-25 g, were fasted for food 2 h before administration, but can have water. All ICR mice were weighed and randomly grouped with the number of animals>10 per group. […] The mice were administered via intragastric administration according to the weight of mice. 1.5% acetic acid solution (0.1 ml/10 g) was intraperitoneally injected at 1 hour after administration, and the number of times of visceral pain in each group within 30 minutes was observed, the mice were counted once when the abdomen was concave, the trunk and hind legs were extended and the hips were elevated, and the number of times of these phenomena occurred within 30 min was finally counted.
In general terms: In writhing tests, fewer writhes than in controls are read as antinociception.

T1 sequence (Q8BLA8 whole entry): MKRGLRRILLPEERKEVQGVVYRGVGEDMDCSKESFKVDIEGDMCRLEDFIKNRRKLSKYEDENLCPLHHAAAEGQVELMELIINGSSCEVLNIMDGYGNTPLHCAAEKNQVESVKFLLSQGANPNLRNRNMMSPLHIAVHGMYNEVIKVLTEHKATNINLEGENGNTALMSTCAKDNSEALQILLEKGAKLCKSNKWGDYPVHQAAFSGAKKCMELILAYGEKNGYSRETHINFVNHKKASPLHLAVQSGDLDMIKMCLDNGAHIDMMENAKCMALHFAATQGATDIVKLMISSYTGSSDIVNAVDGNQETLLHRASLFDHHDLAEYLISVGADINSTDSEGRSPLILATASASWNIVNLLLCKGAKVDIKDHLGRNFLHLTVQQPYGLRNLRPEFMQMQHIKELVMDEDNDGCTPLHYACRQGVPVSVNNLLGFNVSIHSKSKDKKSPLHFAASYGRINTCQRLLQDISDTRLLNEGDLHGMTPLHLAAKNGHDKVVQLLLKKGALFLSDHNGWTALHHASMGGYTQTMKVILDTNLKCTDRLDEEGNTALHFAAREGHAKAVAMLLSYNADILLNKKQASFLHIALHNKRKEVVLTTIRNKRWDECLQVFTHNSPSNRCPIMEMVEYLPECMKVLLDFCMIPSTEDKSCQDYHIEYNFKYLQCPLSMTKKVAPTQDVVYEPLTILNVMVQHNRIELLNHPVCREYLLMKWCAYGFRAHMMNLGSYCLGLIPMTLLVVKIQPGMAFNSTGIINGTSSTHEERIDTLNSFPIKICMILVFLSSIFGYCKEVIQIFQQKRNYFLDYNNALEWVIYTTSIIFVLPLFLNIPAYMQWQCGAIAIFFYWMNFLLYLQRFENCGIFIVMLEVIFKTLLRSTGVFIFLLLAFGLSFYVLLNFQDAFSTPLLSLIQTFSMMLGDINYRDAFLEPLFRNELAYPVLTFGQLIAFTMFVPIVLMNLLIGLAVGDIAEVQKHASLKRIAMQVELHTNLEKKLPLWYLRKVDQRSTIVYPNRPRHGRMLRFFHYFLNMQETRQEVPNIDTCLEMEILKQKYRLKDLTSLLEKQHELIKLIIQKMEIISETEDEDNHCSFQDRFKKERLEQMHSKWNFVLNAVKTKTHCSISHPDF
Procedure for SNL model in rat: SD rats were taken for surgery, male, SPF grade, mass 150 g-180 g. The surgical procedure was performed aseptically. The animals were anesthetized with sodium pentobarbital (50 mg/kg, intraperitoneal injection). The surgical area of the waist of animals was shaved, and the skin was disinfected three times with iodophor and 70% ethanol. Start the operation after the skin was dry. A longitudinal incision was made in the posterior part of the sacral bone of the animal's waist with a scalpel to expose the left paravertebral muscles, and the muscle tissue was separated with a distractor to expose the vertebra. The left spinal nerves L5 and L6 were separated, ligated with 6-0 silk thread, and the wounds were sutured. After the surgery, the animals were placed on an electric blanket and injected subcutaneously with 5 mL normal saline to prevent dehydration. When the animal was completely awake (free to move), put the animal back into the cage.
After the surgery, the animals were adapted in the experimental environment for 15 minutes/day for 3 days.
After administration, mechanical hyperalgesia test was performed. The rats were placed individually in a plexiglas box with a grid at the bottom of the box to ensure that the feet of the rats can be tested. Rats would adapt for 15 minutes before the test. […] The rapid paw withdrawal of the animal during the test was recorded as a pain response. The paw withdrawal of the animal when the test fiber left the animal's skin was also recorded as a pain response. If the animal moved or walked, it will not be recorded as a pain response, the test should be repeated. […]
Mechanical hyperalgesia was expressed as the paw withdrawal threshold (PWT) in the behavioral test of rats, which was calculated according to the following equation: 50% response threshold (g)=(10(^Xf+kδ))/10,000 • Xf=the final test fiber value used in the test • K=table value • δ=Average difference
Data were collected using Excel software and analyzed using Prism 6.01 (Graph pad software, Inc.) software.

For `NCC1(CC(=O)O)CCCCC1` [Gabapentin, gabapentin], the MPE % in experiment [1] (0.5 h) worked out at 6.47 ± 5.49%; in experiment [1] (1 h) it was 14.56 ± 6.18%; in experiment [1] (2 h), 22.66 ± 4.93%. In the experiment on SNL model in rat, the “PWT” value came to 6.352 ± 1.897 g. As to `CCCCN1CCCCC1C(=O)Nc1c(C)cccc1C` (stereo not drawn) [Bupivacaine, bupivacaine], the “PWT” value is 11.587 g in experiment [2] (1 hour after administration, Normal Saline 3.561) and 4.448 g in experiment [2] (2 hours after administration, Normal Saline 3.382). A word on the IC50: it is the point on the concentration scale where inhibition reaches its midpoint. Regarding `CNCC[C@@H](Oc1cccc2ccccc12)c1cccs1` [R-Duloxetine, R-duloxetine], the IC50 on TRPA1 fell in the range of 21 to 50 µM. What is called ED50 is the midpoint of the dose-response relation. Regarding `CNCC[C@H](Oc1cccc2ccoc12)c1cccs1` [Compound C1, (S)-3-(benzofuran-7-yloxy)-N-methyl-3-(thiophen-2-yl)propan-1-amine], the ED50 in experiment [3] was determined as 2.22 mg/kg. Regarding `CN1[C@H]2C[C@H](OC(=O)[C@H](CO)c3ccccc3)C[C@@H]1[C@@H](O)C2` [anisodamine, Anisodamine], in experiment [4], the “number of visceral pains (writhing reactions) within 30 min” value is given as 27 times.

The values are drawn from patent US12570643B2, “3-aryloxy-3-five-membered heteroaryl propylamine compound, and crystal form and use thereof” (Shanghai Leado Pharmatech Co. Ltd., priority 2019, dated 2026).
